These results are taken from ChEMBL document CHEMBL2034952, “Chalcone-benzoxaborole hybrid molecules as potent antitrypanosomal agents” (J Med Chem, 2012).

≈ marks a conversion by molar mass, not a printed value. Calls of active or inactive are those of the source. The calls are words filed in the database; no cut-off is given here.

The test system of data set [1] is Trypanosoma brucei. Put plainly: Antitrypanosomal activity against bloodstream Trypanosoma brucei 427 after 72 hrs by resazurin assay. To be noted: Trypanosoma brucei, 427, 72 h. It is filed as functional, organism-based. On the technique in general: The colour change of resazurin is a common sign of viable cells or microbes.
A further data set deals with L929. Put plainly: Cytotoxicity against mouse L929 cells after 72 hrs by resazurin assay. The class given is cell-based. Particulars: L929, 72 h.
Data set [2] deals with Trypanosoma brucei. Put plainly: Antitrypanosomal activity against bloodstream Trypanosoma brucei 221 infected in Balb/c mouse assessed as increase in mouse survival rate at 50 mg/kg, ip BID for 5 days starting 24 hrs post infection measured after 30 days by microscopic analysis. It is filed as functional. To be noted: Trypanosoma brucei, 221, ip, route intraperitoneal.
For data set [3], the system named is Trypanosoma brucei. In words: Antitrypanosomal activity against bloodstream Trypanosoma brucei 221 infected in Balb/c mouse assessed as complete elimination of parasitemia at 50 mg/kg, ip BID for 5 days starting 24 hrs post infection measured after 30 days by microscopic analysis. Further details: dose 50 mg/kg. The class given is functional, organism-based.

Data set [4] is described as follows: Selectivity ratio of IC50 for mouse L929 cells to IC50 for bloodstream Trypanosoma brucei 427. Particulars: read-out: Ratio IC50. It is filed as ADME, cell-based.

As to `O=C(O)c1ccc(C(=O)/C=C/c2ccc3c(c2)B(O)OC3)cc1`, the IC50 (in general, the concentration needed to halve the response being measured) in the data set on Trypanosoma brucei [1] was 4.45 µg/mL (≈ 14.4 µM); with L929, above 10 µg/mL.

For the molecule `Nc1ccc(C(=O)/C=C/c2ccc3c(c2)B(O)OC3)cc1`, the IC50 in the data set on Trypanosoma brucei [1] is 0.024 µg/mL (≈ 0.086 µM); with L929, above 10 µg/mL.

As to `Cc1cccc(C(=O)/C=C/c2ccc3c(c2)B(O)OC3)c1`, the values for the IC50 with Trypanosoma brucei [1] and with L929 were 0.048 µg/mL (≈ 0.173 µM) and 8.56 µg/mL (≈ 30.8 µM), respectively. Also, the survival at 50 mg/kg in the data set with Trypanosoma brucei [2] is 0%.

Consider `O=C(/C=C/c1ccc2c(c1)B(O)OC2)c1ccc(Cl)c(Cl)c1`, for which the results for the IC50 in the data set on Trypanosoma brucei [1] and in the data set on L929 were 0.09 µg/mL (≈ 0.27 µM) and above 10 µg/mL, respectively.

As to `O=C(/C=C/c1ccc2c(c1)B(O)OC2)c1ccc2c(c1)OCCO2`, the IC50 turned out to be 0.08 µg/mL (≈ 0.248 µM) with Trypanosoma brucei [1] and 6.8 µg/mL (≈ 21.1 µM) in the data set on L929.

Consider `O=C(/C=C/c1ccc2c(c1)B(O)OC2)c1ccccc1F`, for which the figures for the IC50 with Trypanosoma brucei [1] and in the data set on L929 were 0.071 µg/mL (≈ 0.252 µM) and above 10 µg/mL, respectively.

For the molecule `O=C(/C=C/c1ccc2c(c1)B(O)OC2)c1ccc(Cl)cc1`, the IC50 in the data set on Trypanosoma brucei [1] was 0.06 µg/mL (≈ 0.201 µM); with L929, above 10 µg/mL. In the data set on Trypanosoma brucei [2], the survival at 50 mg/kg was 0%.

Take `Cc1ccc(C(=O)/C=C/c2ccc3c(c2)B(O)OC3)cc1`: the results for the half-maximal inhibitory concentration (IC50) with Trypanosoma brucei [1] and in the data set with L929 were 0.046 µg/mL (≈ 0.165 µM) and above 10 µg/mL, respectively.

As to `O=C(/C=C/c1ccc2c(c1)B(O)OC2)c1ccc(O)cc1`, the IC50 in the data set with Trypanosoma brucei [1] is 0.043 µg/mL (≈ 0.154 µM); in the data set with L929, above 10 µg/mL.

With `COc1cc(C(=O)/C=C/c2ccc3c(c2)B(O)OC3)ccc1N`, in the data set on Trypanosoma brucei [3], the result was Active. For the same molecule, the figures for the IC50 with Trypanosoma brucei [1] and with L929 were 0.01 µg/mL (≈ 0.0323 µM) and 1.45 µg/mL (≈ 4.69 µM), respectively. In addition, in the data set with Trypanosoma brucei [2], the survival at 50 mg/kg worked out at 100%. For the same molecule, the selectivity ratio in data set [4] was above 100.

Take `CCOC(=O)c1ccc(C(=O)/C=C/c2ccc3c(c2)B(O)OC3)cc1`: the IC50 was 0.2 µg/mL (≈ 0.595 µM) in the data set with Trypanosoma brucei [1] and above 10 µg/mL with L929.

On to `COc1ccc(C(=O)/C=C/c2ccc3c(c2)B(O)OC3)cc1OC`, for which the IC50 in the data set on Trypanosoma brucei [1] is 0.03 µg/mL (≈ 0.0926 µM); in the data set on L929 it was above 10 µg/mL.

Regarding `COc1cc(C(=O)/C=C/c2ccc3c(c2)B(O)OC3)ccc1[N+](=O)[O-]`, the 50% inhibitory concentration (IC50) is 0.044 µg/mL (≈ 0.13 µM) in the data set with Trypanosoma brucei [1] and above 10 µg/mL in the data set with L929. The survival at 50 mg/kg in the data set with Trypanosoma brucei [2] amounted to 0%.

`O=C(/C=C/c1ccc2c(c1)B(O)OC2)c1ccc(Br)cc1`: the IC50 in the data set on Trypanosoma brucei [1] was 0.09 µg/mL (≈ 0.262 µM); with L929, above 10 µg/mL. Further, the survival at 50 mg/kg with Trypanosoma brucei [2] was found to be 0%.

For `O=C(/C=C/c1ccc2c(c1)B(O)OC2)c1cccc(O)c1`, the IC50 with Trypanosoma brucei [1] came to 0.037 µg/mL (≈ 0.132 µM); with L929, 7.56 µg/mL (≈ 27 µM).

Regarding `O=C(CCc1ccc2c(c1)B(O)OC2)c1ccccc1`, the IC50 in the data set on Trypanosoma brucei [1] was 0.331 µg/mL (≈ 1.24 µM); in the data set with L929 it was above 10 µg/mL.

Take `OB1OCc2ccc(/C=C/C(O)c3ccccc3)cc21` (centres undefined): the IC50 in the data set with Trypanosoma brucei [1] turned out to be 0.239 µg/mL (≈ 0.898 µM); in the data set with L929 it was 2.88 µg/mL (≈ 10.8 µM).

With `COCOc1ccccc1C(=O)/C=C/c1ccc2c(c1)B(O)OC2`, the IC50 with Trypanosoma brucei [1] stood at 0.366 µg/mL (≈ 1.13 µM); with L929, 9.02 µg/mL (≈ 27.8 µM).

For `Cn1cccc1C(=O)/C=C/c1ccc2c(c1)B(O)OC2`, the IC50 with Trypanosoma brucei [1] is 0.057 µg/mL (≈ 0.213 µM); in the data set with L929, above 10 µg/mL.

With `O=C(/C=C/c1ccc2c(c1)B(O)OC2)c1ccc(O)c(O)c1`, the IC50 in the data set with Trypanosoma brucei [1] is 0.055 µg/mL (≈ 0.186 µM); in the data set on L929 it was above 10 µg/mL.

On to `CSc1ccc(C(=O)/C=C/c2ccc3c(c2)B(O)OC3)cc1`, for which the IC50 in the data set on Trypanosoma brucei [1] was 0.059 µg/mL (≈ 0.19 µM); in the data set with L929, above 10 µg/mL.

Consider `COc1cccc(C(=O)/C=C/c2ccc3c(c2)B(O)OC3)c1`, for which, in the data set on Trypanosoma brucei [3], the result was Active. Further, the IC50 in the data set on Trypanosoma brucei [1] is 0.022 µg/mL (≈ 0.0748 µM); with L929, above 10 µg/mL. Further, the survival at 50 mg/kg with Trypanosoma brucei [2] is 100%.

With `Cc1ccc(C(=O)/C=C/c2ccc3c(c2)B(O)OC3)cc1C`, the values for the IC50 with Trypanosoma brucei [1] and in the data set with L929 were 0.04 µg/mL (≈ 0.137 µM) and above 10 µg/mL, respectively.

Turning to `O=C(/C=C/c1ccccc1)c1ccccc1` [CHALCONE], the IC50 is 0.473 µg/mL (≈ 2.27 µM) in the data set on Trypanosoma brucei [1] and 6.92 µg/mL (≈ 33.2 µM) in the data set on L929.

As for `O=C(/C=C/c1ccc2c(c1)B(O)OC2)c1ccccc1`, the IC50 in the data set with Trypanosoma brucei [1] is 0.089 µg/mL (≈ 0.337 µM); with L929, above 10 µg/mL. For the same molecule, the survival at 50 mg/kg in the data set with Trypanosoma brucei [2] was 0%.

For `CCc1ccc(C(=O)/C=C/c2ccc3c(c2)B(O)OC3)cc1`, the IC50 with Trypanosoma brucei [1] is 0.064 µg/mL (≈ 0.219 µM); in the data set with L929 it was above 10 µg/mL.

With `COc1ccccc1C(=O)/C=C/c1ccc2c(c1)B(O)OC2`, the IC50 in the data set with Trypanosoma brucei [1] amounted to 0.058 µg/mL (≈ 0.197 µM); in the data set with L929, 6.35 µg/mL (≈ 21.6 µM).

Regarding `COCOc1cccc(C(=O)/C=C/c2ccc3c(c2)B(O)OC3)c1`, the IC50 in the data set on Trypanosoma brucei [1] is 0.071 µg/mL (≈ 0.219 µM); in the data set with L929 it was above 10 µg/mL. In the data set with Trypanosoma brucei [2], the survival at 50 mg/kg was 0%.

Take `O=C(/C=C/c1ccc2c(c1)B(O)OC2)c1ccc([N+](=O)[O-])cc1`: the IC50 in the data set on Trypanosoma brucei [1] was 0.082 µg/mL (≈ 0.265 µM); in the data set on L929 it was above 10 µg/mL.

As to `O=C(/C=C/c1ccc2c(c1)B(O)OC2)c1ccc(F)cc1`, the IC50 in the data set with Trypanosoma brucei [1] is 0.1 µg/mL (≈ 0.355 µM); in the data set on L929, above 10 µg/mL. Besides, the survival at 50 mg/kg in the data set with Trypanosoma brucei [2] is 0%.

For `O=C(/C=C/c1ccc2c(c1)B(O)OC2)c1cccc2ccccc12`, the IC50 with Trypanosoma brucei [1] was 0.135 µg/mL (≈ 0.43 µM); in the data set with L929, 3.67 µg/mL (≈ 11.7 µM).

For the molecule `Nc1cccc(C(=O)/C=C/c2ccc3c(c2)B(O)OC3)c1`, the IC50 with Trypanosoma brucei [1] is 0.056 µg/mL (≈ 0.201 µM); in the data set with L929, 10 µg/mL (≈ 35.8 µM).

Regarding `COc1ccc(C(=O)/C=C/c2ccc3c(c2)B(O)OC3)cc1`, the IC50 in the data set on Trypanosoma brucei [1] is 0.071 µg/mL (≈ 0.241 µM); with L929 it was above 10 µg/mL. The survival at 50 mg/kg with Trypanosoma brucei [2] came out at 0%.

As to `O=C(/C=C/c1ccc2c(c1)B(O)OC2)c1ccc(I)cc1`, the IC50 in the data set with Trypanosoma brucei [1] was 0.171 µg/mL (≈ 0.438 µM); in the data set with L929, above 10 µg/mL.

For `COc1ccc(C(=O)/C=C/c2ccc3c(c2)B(O)OC3)c(OC)c1`, the IC50 was found to be 0.037 µg/mL (≈ 0.114 µM) with Trypanosoma brucei [1] and 7.87 µg/mL (≈ 24.3 µM) with L929.

For `O=C(/C=C/c1ccc2c(c1)B(O)OC2)c1ccccc1O`, the IC50 is 0.172 µg/mL (≈ 0.614 µM) in the data set with Trypanosoma brucei [1] and above 10 µg/mL in the data set on L929.

Consider `O=C(/C=C/c1ccc2c(c1)B(O)OC2)c1ccc(OCc2ccccc2)cc1`, for which the figures for the IC50 in the data set with Trypanosoma brucei [1] and in the data set on L929 were 0.164 µg/mL (≈ 0.443 µM) and above 10 µg/mL, respectively.

Consider `O=C(/C=C/c1ccc2c(c1)B(O)OC2)c1cccs1`, for which the IC50 in the data set on Trypanosoma brucei [1] is 0.045 µg/mL (≈ 0.167 µM); in the data set on L929, above 10 µg/mL. Further, in the data set with Trypanosoma brucei [2], the survival at 50 mg/kg is 20%.

Consider `COc1cccc(C(=O)/C=C/c2ccccc2)c1`, for which the IC50 in the data set on Trypanosoma brucei [1] was 0.395 µg/mL (≈ 1.66 µM); in the data set with L929, 5.7 µg/mL (≈ 23.9 µM).

Turning to `COc1cc(C(=O)/C=C/c2ccc3c(c2)B(O)OC3)cc(OC)c1OC`, the IC50 is 0.113 µg/mL (≈ 0.319 µM) with Trypanosoma brucei [1] and above 10 µg/mL in the data set on L929.

With `O=C(/C=C/c1ccc2c(c1)B(O)OC2)c1cccc(F)c1`, the IC50 is 0.046 µg/mL (≈ 0.163 µM) in the data set on Trypanosoma brucei [1] and above 10 µg/mL with L929.

For the molecule `O=C(/C=C/c1ccc2c(c1)B(O)OC2)c1ccc(C(F)(F)F)cc1`, the figures for the IC50 in the data set on Trypanosoma brucei [1] and in the data set on L929 were 0.133 µg/mL (≈ 0.4 µM) and above 10 µg/mL, respectively.

As for `O=C(/C=C/c1ccc2c(c1)B(O)OC2)c1ccc(-c2ccccc2)cc1`, the values for the IC50 with Trypanosoma brucei [1] and with L929 were 0.436 µg/mL (≈ 1.28 µM) and above 10 µg/mL, respectively.

For the molecule `O=C(/C=C/c1ccc2c(c1)B(O)OC2)c1ccco1`, the IC50 in the data set on Trypanosoma brucei [1] was 0.064 µg/mL (≈ 0.252 µM); with L929, above 10 µg/mL.

Take `COc1cccc(C(=O)CCc2ccc3c(c2)B(O)OC3)c1`: the results for the IC50 in the data set with Trypanosoma brucei [1] and in the data set with L929 were 0.69 µg/mL (≈ 2.33 µM) and above 10 µg/mL, respectively.

With `O=C(/C=C/c1ccc2c(c1)B(O)OC2)c1ccccn1`, the IC50 in the data set on Trypanosoma brucei [1] is 0.099 µg/mL (≈ 0.373 µM); in the data set with L929, above 10 µg/mL.

Consider `CC(=O)Nc1ccc(C(=O)/C=C/c2ccc3c(c2)B(O)OC3)cc1`, for which the IC50 in the data set with Trypanosoma brucei [1] is 0.04 µg/mL (≈ 0.125 µM); with L929, above 10 µg/mL. In the data set on Trypanosoma brucei [2], the survival at 50 mg/kg amounted to 0%.
